In patent US9684238B2, “Fluorene-type compound, photopolymerization initiator comprising said fluorene-type compound, and photosensitive composition containing said photopolymerization initiator” (TOKYO OHKA KOGYO CO., LTD., priority 2012, dated 2017):

What was measured:
[1] = Transparency: coloring of the photopolymerization initiator before and after exposure; type: physicochemical; settings: 40 g/L in tetrahydrofuran; 365 nm UV, 850 to 2,550 mJ/cm^2; compared with compound C-1
Method: An influence on the coloring of a photopolymerization initiator after its exposure was confirmed because the photopolymerization initiator was required to have transparency. Specifically, as described below, the degrees of coloring (color change) of the photopolymerization initiator itself before and after its exposure were evaluated by measuring its absorbance. A 40 g/L solution of the compound 4 of Synthesis Example 4 in tetrahydrofuran was prepared, and the solution was loaded into a lidded UV cell made of quartz (12.5×12.5×58 mm) having an optical path length of 1 cm. The absorption spectrum of the solution before its exposure was measured with a spectrophotometer (manufactured by Hitachi High-Technologies Corporation, trade name: “U-3900H”). After that, the quartz surface of the UV cell was vertically irradiated with 850 mJ/cm^2 of UV light having a wavelength of 365 nm by using an exposure apparatus (manufactured by Ushio Inc., trade name: “[…]” (ML-251A/B) and optical unit (PM25C-100)), and the absorption spectrum of the solution was measured again. The foregoing operations were repeatedly performed, and a change in absorbance of the solution by UV irradiation was measured. […]
The axis of abscissa of the graph of FIG. 1(A) indicates the measurement wavelength (nm) of an absorption spectrum and the axis of ordinate thereof indicates an absorbance (Abs.) at the wavelength. […]

[2] = Solubility in PGME, PGMEA and ethyl lactate; type: physicochemical
[3] = Evaluation 1: 20-μm pattern line width of transparent photosensitive composition; settings: transparent composition, initiator 0.4 mmol
[4] = Average transmittance of composition; type: physicochemical; settings: photosensitive composition, quartz cell, optical path length 1 cm
Method: The average transmittance (%) of each of the photosensitive resin compositions obtained in Examples 1 to 9, Examples 2-1 to 2-10, and Comparative Examples 1 and 2 in the range of from 400 nm to 700 nm was measured with a spectrophotometer (manufactured by Hitachi High-Technologies Corporation, trade name: “U-3900H”, quartz cell, optical path length; 1 cm).

[5] = Transmittance of transparent cured film; type: physicochemical
Summary of the method: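 Films cured at 80 mJ/cm^2 exposure, otherwise prepared as in the earlier film evaluation. Spectrophotometer read in quartz cell, 1 cm path, giving transmittance (%) at 400 nm and average transmittance (%) over 400–700 nm.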

[6] = Decomposition point by thermal analysis (TG-DTA); type: physicochemical; settings: 5.0 mg
Method: The compounds 1, 2, 4, 6, 8, 9, 11, 12, 13, 15, 16, D-1, D-3, D-4, D-7, D-8, D-9, D-12, D-14, D-15, D-20, C-1, and C-2 were each subjected to measurement with a thermal analysis apparatus (TG-DTA) (manufactured by Rigaku Corporation, trade name: “Thermo Plus EVO TG 8120”) by using 5.0 mg thereof.

[7] = Absorption coefficient (absorbance of 0.001% solution in tetrahydrofuran); type: physicochemical
Summary of the method: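 Absorbance of a 0.001% (wt/vol) solution in tetrahydrofuran recorded by spectrophotometer. Absorption maximum wavelength (λmax) taken from the spectrum within 280–400 nm.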

[8] = photopolymerization initiator containing the compound
[9] = cured at exposure energy quantity 80 mJ/cm^2
[10] = 0.001% (wt/vol) solution in tetrahydrofuran

CCCC1(CCC)c2cc(C(=O)c3ccccc3C)ccc2-c2ccc(/C(C)=N/OC(C)=O)cc21 [Compound 4]
influence on the coloring by the exposure [1]: small | Solubility Ethyl lactate ([2]; in 100 parts by weight of ethyl lactate, room temperature): B (An amount in the range of from 5 parts by weight or more to less than 10 parts by weight of the photopolymerization initiator is dissolved.) | Solubility PGMEA ([2]; in 100 parts by weight of propylene glycol monomethyl ether acetate, room temperature): A (10 Parts by weight or more of the photopolymerization initiator is dissolved.) | Solubility PGME ([2]; in 100 parts by weight of propylene glycol monomethyl ether, room temperature): B (An amount in the range of from 5 parts by weight or more to less than 10 parts by weight of the photopolymerization initiator is dissolved.) | solubility (in words) [2, 8]: additionally excellent solubility | 20-μm pattern line width ([3]; exposure energy quantity 10 mJ/cm^2): 19.4 | 20-μm pattern line width ([3]; exposure energy quantity 20 mJ/cm^2): 20.0 | 20-μm pattern line width ([3]; exposure energy quantity 40 mJ/cm^2): 21.3 | 20-μm pattern line width ([3]; exposure energy quantity 60 mJ/cm^2): 22.1 | 20-μm pattern line width ([3]; exposure energy quantity 80 mJ/cm^2): 22.4 | Average transmittance (700 nm to 400 nm) Solution [4]: 96.3% | Average transmittance (700 nm to 400 nm) Transparent cured film [5, 9]: 99.9% | Transmittance (400 nm) Transparent cured film [5, 9]: 99.4% | transparency of photosensitive composition and formed product (in words) [5, 8]: additionally excellent transparency | Decomposition point [6]: 277.0 °C | Λ max (absorption maximum wavelength) ([7]; 0.001% (wt/vol) in tetrahydrofuran, from 280 nm to 400 nm): 330.5 nm | Absorption coefficient at 365 nm [7, 10]: 2.2 mL/mg/cm | Absorption coefficient at Λ max [7, 10]: 85.7 mL/mg/cm
